Key:
[1] = system: platelet aggregation (PA); experiment: Phase II study: arachidonic acid-induced platelet aggregation by light transmission aggregometry; format: in vivo, human; details: platelets stimulated with 1 µM AA
Experimental: (§1) A randomized, double-blind Phase II study was conducted to evaluate verbascoside activity in modulating the platelet aggregation (PA) values on subjects with at least one cardiovascular risk factor, selected from: age over 65 years, diabetes mellitus, hypertension, smoke, hyperlipidemia, waist circumference greater than 102 cm in men or 88 cm in women. Patients under pharmacological treatment with platelet antiaggregants (aspirin, clopidogrel, ticlopidine, prasugrel, ticagrelor), with anticoagulants (e.g. warfarin) or with oral contraceptives, were excluded. Other exclusion criteria were: events of myocardial infarction, coronary revascularization (percutaneous or surgical), infarction, temporary ischemic attack, peripheral vascular pathology, and the consumption of corticosteroids and/or non-steroidal anti-inflammatory drugs in the last month.
(§2) The experimentation was conducted on 100 subjects. […]
(§3) PA was determined by means of light transmission aggregometry according to standard protocols. […] The aggregation was measured at 37°C with a PACKS-4 aggregometer (Helena Laboratories). The curves were recorded for 6 min. The aggregation was measured at a maximum aggregation (maximum PA) and at 5 min (delayed PA). […]

[2] = system: platelet aggregation (PA); experiment: Phase II study: ADP-induced platelet aggregation by light transmission aggregometry; format: in vivo, human; details: platelets stimulated with 5 µM ADP
Experimental: as §1, §2, §3

[3] = Oxidation stability as antioxidant power against the DPPH radical; format: physicochemical; details: 100 µM DPPH in methanol, 15 min in the dark at room temperature, 515 nm
Experimental: The oxidation stability of the compounds of formula (I) was evaluated as a function of their antioxidant power, determined as the reactivity of the compound against the stable radical 2,2-diphenyl-1-picrylhydrazyl (DPPH) in solution. High reactivity means poor stability under oxidizing conditions.
A 100 µM solution of DPPH in methanol, prepared from a 1 mM solution, then diluted at 1:10 was used for the determination.
The following final dilutions (from a solution in methanol having a double concentration) of the compound of formula (I) to be analyzed were prepared: 500 µg/mL, 100 µg/mL, 50 µg/mL, 10 µg/mL, 5 µg/mL, 2.5 µg/mL, 1 µg/mL, 0.5 µg/mL, 0.1 µg/mL, 0.05 µg/mL, 0 µg/mL.
500 µl of the compound to be tested at a certain concentration and 500 µl of DPPH were placed in a cuvette, they were all mixed and incubated in the dark at room temperature for 15 min.
The solution was analyzed with a spectrophotometer at a wavelength of 515 nm (methanol as white).
The color in the cuvettes varies from violet (DPPH without compound of formula (I)) to straw-yellow (DPPH with maximum inhibitory concentration of the compound of formula (I)).
The percent inhibition of the radical reaction is defined as: [(Absmax(DPPHalone)−Abs(DPPH+compound))/Absmax] × 100. [formula] […]

[4] = Stability in gastric fluids (SGF), HPLC; format: in vitro ADME; details: pH=1.6
Experimental: (§4) The stability of the compounds of formula (I) was measured under physiological conditions.
(§5) The stability measurement was conducted by means of analytic HPLC techniques with a UV detector at 330 nm. The half-life is reported (in hours).

[5] = Stability in fasted intestinal fluid (FASSIF), HPLC; format: in vitro ADME; details: pH=6.5
Experimental: as §4, §5

[6] = Stability in fed intestinal fluid (FESSIF), HPLC; format: in vitro ADME; details: fed-state simulated intestinal fluid (FESSIF), pH=5, read-out: FESSIF t1/2
Experimental: as §4, §5

Stability in blood, HPLC = format: in vitro ADME
Experimental: as §4, §5

[7] = Metabolism in human liver; format: in vitro ADME
Excerpt: Moreover, it has also been determined that the derivatives (B), (C) and (D) are metabolized in human liver, whereas verbascoside (derivative (A)) is stable.

Inhibitory activity (IC50) [3]: 2 µg/mL | SGF t1/2 [4]: STABLE | FASSIF t1/2 [5]: stable | half-life [6]: > 1440 min | Blood t1/2 (Stability in blood, HPLC): stable | metabolized in human liver [7]: stable
SMILES: C[C@@H]1O[C@@H](O[C@@H]2[C@@H](O)[C@H](OCCc3ccc(O)c(O)c3)O[C@H](CO)[C@H]2OC(=O)/C=C/c2ccc(O)c(O)c2)[C@H](O)[C@H](O)[C@H]1O [(A), Verbascoside]
Arachidonic acid-induced maximum PA ([1]; after 2 weeks of 50 mg/day, time 0 value 50±9%, p=0.4): 48±10% | Arachidonic acid-induced maximum PA ([1]; after 2 weeks of 100 mg/day, time 0 value 51±13%, p<0.01): 39±15% | ADP-induced maximum PA ([2]; after 2 weeks of 50 mg/day, time 0 value 58±8%, p=0.5): 56±9% | ADP-induced maximum PA ([2]; after 2 weeks of 100 mg/day, time 0 value 60±12%, p<0.01): 49±15%

Reference: patent EP3265461B1, “VERBASCOSIDE DERIVATIVES” (Croda Italiana S.p.A., priority 2015, dated 2016)
